Data as given in publication PMC6394990, “Detailed characterization of the solution kinetics and thermodynamics of biotin, biocytin and HABA binding to avidin and streptavidin” (PLoS ONE, 2019).
Where “and” joins values, the source holds several entries; their conditions need not be identical. Equal values may be shown once. Read-outs that look alike come from different tables or passages of the source.

Columns and labels:
[1] = biological target: T1, avidin (AV) (Gallus gallus, UniProt P02701); test: Stopped-flow association kinetics of dye-labeled biotin probes binding to avidin (F(t), rF(t); Arrhenius plots/global fitting); conditions: for half-time of association, rF¯(t) / halftime of association, rF¯(t): probe 20 nM; for half-time of association, rF¯(t): AV 260 nM
T1 construct: purchased Calbiochem (La Jolla, CA)
T1 sequence (P02701 25-152): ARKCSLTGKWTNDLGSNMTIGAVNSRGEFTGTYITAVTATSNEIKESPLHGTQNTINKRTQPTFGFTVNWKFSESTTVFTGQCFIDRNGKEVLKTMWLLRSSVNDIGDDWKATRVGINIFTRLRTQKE
Protocol: These reactions were carried out in a buffered solution of 10 mM Tris-HCl, 100 mM KCl, 2.5 mM MgCl2 and 1 mM CaCl2 at pH 8 and only AV-BcO reactions included pH 9 and 10. The concentrations, after mixing, were of 20 nM of dye-labeled B7 probe and 260 nM, 520 nM or 1040 nM of AV; and 200 nM, 300 nM, 400 nM or 800 nM of SAV at temperatures of 10, 15, 20 and 25°C. The deglycosylation of AV (for comparative association reactions) was carried out using the provided standard protocol with endoglycosidase H [47], both with and without incubation of a denaturant solution (2% SDS and 1M 2-mercaptoethanol).
The reactions were collected with the SF instrument, described previously. The fluorescence signal was collected through a 520 nm interference filter (Oriel Corp., Stratford, CT) with a detector time constant and SF dead time of 1 μs and 1 ms, respectively. The excitation light was provided by the Coherent Ar^+ ion laser (described above) at 488 nm with […] of incident power on the reaction cuvette. The laser source was followed by the photo-elastic modulator described above with the axis oriented 45^o with respect to the electric vector of the incident light and with the half-wave modulation (50 kHz) set for 488 nm excitation. The demodulation circuitry following the photomultiplier provided a DC(t) and a rectified AC(t) which were converted to digital data by a high-speed digitizer (PCI-5122) from National Instruments (Austin, TX) with 14-bit resolution and 100 MHz bandwidth, through channels 0 and 1. The data acquisition was controlled by LabVIEW (Vr 8) software at a collection rate of 6120 data points/second and stored in spreadsheets. The AC(t) and DC(t) data were baseline corrected before obtaining the signal ratio (Eq 4) as a function of time (ρt).
The constant AGain is the instrumental amplitude gain and was evaluated by solving ρ(t) using the known steady state anisotropy (rss) of the complexes which is equivalent to the r(t) at t = ∞; and H, obtained from the equivalent grating factor (G) for the filters and photo multiplier tubes in the SF. For the probes used in here G was 0.82 and H = (1-G)/(1+G) = 0.099. Knowing Again and H, the AC(t) and DC(t) signals can be solved for r(t) and F(t) (Eqs 4 and 5) and the normalized fluorescence, F¯(t) , and corrected fluorescence anisotropy, rF¯(t), were obtained when F¯(0) and rF¯(0) were scaled to 1 at t = 0.
The F¯(t) (Eq 6) is equivalent to (I||) + 2 (I⊥) and proportional to quantum yield (QYi), molar absorptivity (εi) and to the formation or disappearance of the emitting species Xi(t); and rF¯(t) including the steady state anisotropies (rss) of each fluorescent species (Eq 7).
The possible reaction models were discriminated by the squared residuals of the observed and calculated association traces of both fluorescence and anisotropy fluorescence signals, F¯(t) and rF¯(t) , respectively.

[2] = biological target: T1, avidin (AV); test: Absorbance and fluorescence emission spectra, AV complex; format: physicochemical
Protocol: The lifetimes (τ), steady state anisotropies (rss), time-resolved anisotropies (rt) and quantum yields (QY) of the complexes (at 20 ± 0.1°C and pH 8) were collected with a dye-labeled B7 probe concentration of 20–40 nM and 1040–2080 nM of either protein (AV or SAV) to ensure that only one binding site in the tetramer was filled with a ligand (AB1 filling model).
The QY values were obtained by using a reference fluorophore of known quantum yield and were calculated according to Parker and Rees, where the reference dye was fluorescein in 0.1N sodium hydroxide solution [46]. The emission fluorescence scans were collected from 480 nm to 700 nm with the excitation light set at 460 nm provided by the xenon arc lamp described above. These measurements were made on the AB1 complexes at high protein concentration.
Supplementary file pone.0204194.s001.docx: S1 Fig Absorbance spectra of dye-labeled B7 probes and respective complexes with AV and SAV. […] The spectra are normalized to the calculated molar absorptivies. […] The labeled probes and protein concentrations were 1 μM and 10 μM, respectively. (DOCX) Click here for additional data file.
Supplementary file pone.0204194.s002.docx: S2 Fig Fluorescence emission spectra of dye-labeled B7 and respective complexes with AV and SAV. […] The probe and protein concentrations were 20 nM and 1040 nM (AB1 filling model), respectively. (DOCX) Click here for additional data file.

For `NC(CCCCNC(=O)CCCC[C@@H]1SC[C@@H]2NC(=O)N[C@@H]21)C(=O)NCCCCCNC(=O)c1ccc(-c2c3cc(F)c(=O)cc-3oc3cc(O)c(F)cc23)c(C(=O)O)c1` (stereo partly drawn) [BcO, Oregon green 488 Biocytin], which kon ([1]; pH 8, AV 520 nM, 10°C, pH 8, read-out: kon AV-BcO r¯F(t)) is on record?
The kon was 2.7e+06 ± 100000 M⁻¹ s⁻¹.

And the kon ([1]; pH 8, AV 520 nM, 15°C, pH 8, read-out: kon AV-BcO F¯(t))?
Its kon is 4e+06 ± 100000 M⁻¹ s⁻¹.

What about the kon ([1]; pH 8, AV 520 nM, 15°C, pH 8, read-out: kon AV-BcO r¯F(t)) of the same molecule?
The kon was 3.8e+06 ± 100000 M⁻¹ s⁻¹.

What about the kon ([1]; pH 8, AV 520 nM, 20°C, pH 8, read-out: kon AV-BcO F¯(t)) of the same molecule?
Its kon is 5.9e+06 ± 300000 M⁻¹ s⁻¹.

What about the kon ([1]; pH 8, AV 520 nM, 20°C, pH 8, read-out: kon AV-BcO r¯F(t)) of the same molecule?
Its kon is 5.8e+06 ± 100000 M⁻¹ s⁻¹.

What about the kon ([1]; pH 8, AV 520 nM, 25°C, pH 8, read-out: kon AV-BcO F¯(t)) of the same molecule?
The kon was 9.5e+06 ± 300000 M⁻¹ s⁻¹.

What about the kon ([1]; pH 8, AV 520 nM, 25°C, pH 8, read-out: kon AV-BcO r¯F(t)) of the same molecule?
Its kon is 9.5e+06 ± 100000 M⁻¹ s⁻¹.

What about the kon ([1]; pH 8, AV 1040 nM, 10°C, pH 8, read-out: kon AV-BcO F¯(t)) of the same molecule?
The kon was 2.5e+06 ± 200000 M⁻¹ s⁻¹.

And the kon ([1]; pH 8, AV 1040 nM, 10°C, pH 8, read-out: kon AV-BcO r¯F(t))?
The kon was 2.7e+06 ± 100000 M⁻¹ s⁻¹.

And the kon ([1]; pH 8, AV 1040 nM, 15°C, pH 8, read-out: kon AV-BcO F¯(t))?
The kon was 3.9e+06 ± 200000 M⁻¹ s⁻¹.

What about the kon ([1]; pH 8, AV 1040 nM, 15°C, pH 8, read-out: kon AV-BcO r¯F(t)) of the same molecule?
The kon was 4e+06 ± 200000 M⁻¹ s⁻¹.

What about the kon ([1]; pH 8, AV 1040 nM, 20°C, pH 8, read-out: kon AV-BcO F¯(t)) of the same molecule?
The kon was 6e+06 ± 100000 M⁻¹ s⁻¹.

And the kon ([1]; pH 8, AV 1040 nM, 20°C, pH 8, read-out: kon AV-BcO r¯F(t))?
The kon was 6.1e+06 ± 100000 M⁻¹ s⁻¹.

And the kon ([1]; pH 8, AV 1040 nM, 25°C, pH 8, read-out: kon AV-BcO F¯(t))?
The kon was 9.7e+06 ± 300000 M⁻¹ s⁻¹.

What about the kon ([1]; pH 8, AV 1040 nM, 25°C, pH 8, read-out: kon AV-BcO r¯F(t)) of the same molecule?
Its kon is 9.4e+06 ± 200000 M⁻¹ s⁻¹.

What about the kon ([1]; pH 8, AV, Arrhenius plot, 23°C and pH 8, read-out: kon) of the same molecule?
The kon was 7.8e+06 ± 4e+11 M⁻¹ s⁻¹.

And the kon ([1]; pH 8, AV, pH 8, 10°C, read-out: kon)?
Its kon is 2.6e+06 ± 300000 M⁻¹ s⁻¹.

What about the kon ([1]; pH 8, AV, pH 8, 15°C, read-out: kon) of the same molecule?
Its kon is 3.9e+06 ± 300000 M⁻¹ s⁻¹.

And the kon ([1]; pH 8, AV, pH 8, 20°C, read-out: kon)?
Its kon is 5.9e+06 ± 400000 M⁻¹ s⁻¹.

What about the kon ([1]; pH 8, AV, pH 8, 25°C, read-out: kon) of the same molecule?
Its kon is 9.5e+06 ± 400000 M⁻¹ s⁻¹.

And the kon ([1]; pH 9, AV, pH 9, 10°C, read-out: kon)?
The kon was 2.3e+06 ± 100000 M⁻¹ s⁻¹.

What about the kon ([1]; pH 9, AV, pH 9, 15°C, read-out: kon) of the same molecule?
The kon was 3.4e+06 ± 100000 M⁻¹ s⁻¹.

And the kon ([1]; pH 9, AV, pH 9, 20°C, read-out: kon)?
The kon was 5.4e+06 ± 200000 M⁻¹ s⁻¹.

And the kon ([1]; pH 9, AV, pH 9, 25°C, calculated from an Arrhenius plot, read-out: kon)?
The kon was 7.9e+06 ± 300000 M⁻¹ s⁻¹.

And the kon ([1]; pH 10, AV, pH 10, 10°C, read-out: kon)?
Its kon is 1.9e+06 ± 100000 M⁻¹ s⁻¹.

And the kon ([1]; pH 10, AV, pH 10, 15°C, read-out: kon)?
The kon was 3e+06 ± 100000 M⁻¹ s⁻¹.

And the kon ([1]; pH 10, AV, pH 10, 20°C, read-out: kon)?
The kon was 4.8e+06 ± 200000 M⁻¹ s⁻¹.

What about the kon ([1]; pH 10, AV, pH 10, 25°C, calculated from an Arrhenius plot, read-out: kon) of the same molecule?
The kon was 7.2e+06 ± 300000 M⁻¹ s⁻¹.

And the “half-time of association, rF¯(t)” value ([1]; pH 8, 10°C)?
The value was 1024 ms.

What about the “half-time of association, rF¯(t)” value ([1]; pH 8, 15°C) of the same molecule?
The value was 695 ms.

And the “half-time of association, rF¯(t)” value ([1]; pH 8, 20°C)?
Its value is 452 ms and 455 ms.

What about the “half-time of association, rF¯(t)” value ([1]; pH 8, 25°C) of the same molecule?
The value was 280 ms.

And the “halftime of association, rF¯(t)” value ([1]; AV 520 nM, pH 8, 20°C)?
Its value is 229 ms.

And the “halftime of association, rF¯(t)” value ([1]; AV 1040 nM, pH 8, 20°C)?
Its value is 109 ms.

What about the kon ([1]; untreated AV, 15°C, read-out: kon) of the same molecule?
Its kon is 3.9e+06 M⁻¹ s⁻¹.

And the “Maximum Absorbance” value ([2]; AV complex (AB1))?
The value was 497 nm.

What about the “Maximum Emission” value ([2]; AV complex (AB1)) of the same molecule?
The value was 524 nm.

What about the “Abs (nm)” value ([2]; complex with AV) of the same molecule?
The value was 497 nm.

What about the “Emission (nm)” value ([2]; complex with AV) of the same molecule?
The value was 524 nm.
